Assay results published in ChEMBL document CHEMBL1201862, “PubChem BioAssay data set” (2004).
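Assay format: 96-well plates, 48-hour exposure. At the GI50, growth is halved.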 The source made the active and inactive calls. No stated cut-off is given here; in the data, active = GI50 up to about 1.1 µM and inactive = higher.

How the values were obtained:
Assay in all cases: inhibition of tumour cell growth, NCI panel, 48 h
[1] = tested on: SW-620
[2] = tested on: CCRF-CEM
[3] = tested on: CAKI-1
[4] = tested on: NCI-H460
[5] = tested on: EKVX
[6] = tested on: SN12C
[7] = tested on: HL-60
[8] = tested on: UO-31
[9] = tested on: PC-3
[10] = tested on: A498
[11] = tested on: MCF7
[12] = tested on: IGROV-1
[13] = tested on: MDA-MB-231
[14] = tested on: SK-MEL-28
[15] = tested on: UACC-62
[16] = tested on: M14
[17] = tested on: RXF 393
[18] = tested on: SK-MEL-2
[19] = tested on: OVCAR-3
[20] = tested on: SF-295
[21] = tested on: SNB-19
[22] = tested on: SK-OV-3
[23] = tested on: K562
[24] = tested on: Hs-578T
[25] = tested on: SF-268
[26] = tested on: U-251
[27] = tested on: 786-0
[28] = tested on: SR
[29] = tested on: HCC 2998
[30] = tested on: NCI-H226
[31] = tested on: NCI-H522
[32] = tested on: UACC-257
[33] = tested on: HT-29
[34] = tested on: NCI/ADR-RES
[35] = tested on: OVCAR-5
[36] = tested on: DU-145
[37] = tested on: HCT-116
[38] = tested on: T47D
[39] = tested on: HCT-15
[40] = tested on: SK-MEL-5
[41] = tested on: BT-549
[42] = tested on: LOX IMVI
[43] = tested on: SNB-75
[44] = tested on: OVCAR-8
[45] = tested on: HOP-62
[46] = tested on: TK-10
[47] = tested on: OVCAR-4
[48] = tested on: Malme-3M
[49] = tested on: MDA-MB-435
[50] = tested on: ACHN
[51] = tested on: KM12
[52] = tested on: MDA-N
[53] = tested on: COLO 205
[54] = tested on: NCI-H23
[55] = tested on: A549
[56] = tested on: RPMI-8226
[57] = tested on: HOP-92
[58] = tested on: MOLT-4
[59] = tested on: SF-539

**Q.** Which results are given for `Nc1nc(SCc2ccccn2)c2ncn(C3CCCC3)c2n1`?
**A.** GI50 [1]: > 100 µM (inactive); GI50 [2]: > 100 µM (inactive); GI50 [3]: > 100 µM (inactive); GI50 [4]: > 100 µM (inactive); GI50 [5]: > 100 µM (inactive); GI50 [6]: > 100 µM (inactive); GI50 [7]: 97.3 µM (inactive); GI50 [8]: 15 µM (inactive); GI50 [9]: > 100 µM (inactive); GI50 [10]: > 100 µM (inactive); GI50 [11]: > 100 µM (inactive); GI50 [12]: > 100 µM (inactive); GI50 [13]: > 100 µM (inactive); GI50 [14]: > 100 µM (inactive); GI50 [15]: > 100 µM (inactive); GI50 [16]: > 100 µM (inactive); GI50 [17]: > 100 µM (inactive); GI50 [18]: > 100 µM (inactive); GI50 [19]: > 100 µM (inactive); GI50 [20]: > 100 µM (inactive); GI50 [21]: > 100 µM (inactive); GI50 [22]: > 100 µM (inactive); GI50 [23]: > 100 µM (inactive); GI50 [24]: 25.9 µM (inactive); GI50 [25]: 70.5 µM (inactive); GI50 [26]: > 100 µM (inactive); GI50 [27]: > 100 µM (inactive); GI50 [28]: > 100 µM (inactive); GI50 [29]: > 100 µM (inactive); GI50 [30]: > 100 µM (inactive); GI50 [31]: 59.7 µM (inactive); GI50 [32]: > 100 µM (inactive); GI50 [33]: > 100 µM (inactive); GI50 [34]: > 100 µM (inactive); GI50 [35]: > 100 µM (inactive); GI50 [36]: > 100 µM (inactive); GI50 [37]: > 100 µM (inactive); GI50 [38]: 76 µM (inactive); GI50 [39]: > 100 µM; GI50 [40]: > 100 µM (inactive); GI50 [41]: > 100 µM (inactive); GI50 [42]: > 100 µM (inactive); GI50 [43]: 40.5 µM (inactive); GI50 [44]: > 100 µM (inactive); GI50 [45]: > 100 µM (inactive); GI50 [46]: > 100 µM (inactive); GI50 [47]: > 100 µM (inactive); GI50 [48]: 82 µM (inactive); GI50 [49]: > 100 µM (inactive); GI50 [50]: > 100 µM (inactive); GI50 [51]: > 100 µM (inactive); GI50 [52]: > 100 µM (inactive); GI50 [53]: > 100 µM (inactive); GI50 [54]: > 100 µM (inactive); GI50 [55]: > 100 µM (inactive); GI50 [56]: > 100 µM (inactive)

**Q.** What does the source list for `Cc1cc(=O)oc2c(CN(CCCl)CCCl)c(O)ccc12`?
**A.** GI50 [1]: 14 µM (inactive); GI50 [2]: 2.47 µM (inactive); GI50 [3]: 6.78 µM (inactive); GI50 [4]: 17.4 µM (inactive); GI50 [5]: > 100 µM (inactive); GI50 [57]: > 100 µM (inactive); GI50 [6]: 20.7 µM (inactive); GI50 [7]: 4.3 µM (inactive); GI50 [8]: 41.8 µM (inactive); GI50 [9]: 44 µM (inactive); GI50 [10]: 62.7 µM (inactive); GI50 [11]: 11.4 µM (inactive); GI50 [12]: 55.7 µM (inactive); GI50 [13]: > 100 µM (inactive); GI50 [14]: 65.5 µM (inactive); GI50 [15]: 5.56 µM (inactive); GI50 [16]: 39.8 µM (inactive); GI50 [17]: 30.5 µM (inactive); GI50 [58]: 4.99 µM (inactive); GI50 [18]: > 100 µM (inactive); GI50 [19]: 80.5 µM (inactive); GI50 [20]: 11.8 µM (inactive); GI50 [21]: 24.3 µM (inactive); GI50 [23]: 34.5 µM (inactive); GI50 [24]: 72.3 µM (inactive); GI50 [25]: 59.3 µM (inactive); GI50 [26]: 38.4 µM (inactive); GI50 [27]: 33.4 µM (inactive); GI50 [28]: 43.6 µM (inactive); GI50 [29]: 28.4 µM (inactive); GI50 [30]: 35.3 µM (inactive); GI50 [31]: 14.5 µM (inactive); GI50 [32]: > 100 µM (inactive); GI50 [33]: 22.7 µM (inactive); GI50 [34]: 71.9 µM (inactive); GI50 [35]: > 100 µM (inactive); GI50 [36]: 36.5 µM (inactive); GI50 [37]: 27.8 µM (inactive); GI50 [38]: 31.5 µM (inactive); GI50 [39]: 56.9 µM; GI50 [40]: 16.6 µM (inactive); GI50 [41]: 21.1 µM (inactive); GI50 [42]: 10.7 µM (inactive); GI50 [43]: 53.5 µM (inactive); GI50 [44]: 54.6 µM (inactive); GI50 [45]: 26.5 µM (inactive); GI50 [59]: 20.6 µM (inactive); GI50 [47]: > 100 µM (inactive); GI50 [48]: 34.1 µM (inactive); GI50 [49]: 57.3 µM (inactive); GI50 [50]: 13.6 µM (inactive); GI50 [51]: 78.7 µM (inactive); GI50 [52]: 78.2 µM (inactive); GI50 [53]: 18 µM (inactive); GI50 [54]: 43.3 µM (inactive); GI50 [55]: 27.5 µM (inactive); GI50 [56]: 19.1 µM (inactive)
